The values below come from patent US20250092345A1, “INTER ORGAN PLATFORM FOR MICROPHYSIOLOGICAL SYSTEM ON A CHIP” (THE TRUSTEES OF COLUMBIA UNIVERSITY IN THE CITY OF NEW YORK, priority 2020, published 2025).

The test system of series [1] is non-metastatic TE-ES bone tumor tissues. Nature of the series: Non-metastatic ES bone tumor in the integrated platform with microfluidic perfusion, linsitinib. It counts as cell-based, human. Particulars: 12 μM. On the procedure: The TE-ES and cardiac tissues were then cultured in the integrated platform with perfusion of mixed media. Linsitinib was introduced into the reservoir and delivered to tissues via circulation of perfusate and diffusion into the tissues.
ES cells, when co-cultured with mesenchymal stem cells and exposed to physiological shear-stress in a perfusion bioreactor, can become resistant to IGF-1R inhibitors. Therefore, we evaluated the role of flow derived shear stress in this newly found resistance of non-metastatic TE-ES bone tumor tissues to the IGF-1R inhibitor linsitinib. Linsitinib was introduced into the platform (12 µM, 3 days), either via circulation or directly into the TE-ES tissue chamber (FIG. 34G), to distinguish effects of flow-derived stimuli from drug diffusion into the tissues.
Upon maturation, bone tumors in the platform were exposed to a 1:1 mixture of the bone tumor and cardiac tissue media, supplemented by 12 μM linsitinib in the treated groups. […]
Cell viability was analyzed using a previously established protocol. Cancer cell viability was measured for GFP-Luciferase labelled cancer cells using ONE-Glo luciferase substrate that was prepared according to manufacturer's protocol (Promega). […] Where noted, longitudinal cell viability was also assessed using luminescence, though at the cost of signal strength. […] Some of the IC50 values were determined using cell viability data generated using an MTT assay (RealTime-Glo™ MT Cell Viability Assay, Promega) that were analyzed according to manufacturer's protocol.
In order to confirm linsitinib mechanism of action in ES cells, both RD-ES and SK-N-MC monolayers were treated with 12 μM linsitinib for 6 hours, lysed, measured for protein quantity using a Pierce™ BCA Protein Assay Kit (ThermoFisher), and loaded equally onto a Human Phospho-IGF1R ELISA (RayBiotech) to semi-quantitatively determine phosphorylated levels of the IGF-1 receptor, according to manufacturer's instructions. Osteocalcin (OCN), osteopontin (OPN), and lactic acid dehydrogenase (LDH) secreted levels were all measured using a similar approach. […]

For series [2] the following is noted: cited from earlier work.
The conditions of series [3]: cited from earlier work. The source holds these as a separate data set.
Series [4] relates to engineered cardiac tissues. Put plainly: Engineered cardiac tissues in isolation, linsitinib cardiotoxicity. It is filed as cell-based, human. The following applies: after linsitinib exposure, isolated. The text has this:
After establishing the capability of TE-ES tumors to model drug efficacy, we evaluated the ability of cardiac tissues to determine the cardiotoxicity of linsitinib. Cardiac tissues were exposed to the same therapeutic concentration of linsitinib as bone tumors. […] Cardiotoxicity of linsitinib has been observed in clinical trials of other types of cancer, with patients presenting proarrhythmic events, like tachycardia (3.75-5% of patients) and atrial fibrillation (3.75-5%). We observed higher beat frequency and higher rate of proarrhythmic events per beat (around 36%) than in clinical studies (FIG. 32B and FIG. 32C). […]
Cardiac tissues were studied using caffeine (50 mM in water; Sigma-Aldrich), amiodarone hydrochloride (2.418 µM in DMSO; Sigma-Aldrich), isoproterenol hydrochloride (a series of drug concentrations in water; Sigma-Aldrich) or doxorubicin hydrochloride (1 µM in DMSO; Sigma-Aldrich), all diluted in RPMI Medium 1640 supplemented with B-27[…]. Response to isoproterenol was analyzed 10 minutes after exposure to […] isoproterenol hydrochloride, diluted in RPMI Medium […] supplemented with B27[…]. […]
To measure the cardiac contractility online, we took contractility videos of the tissues that were analyzed using the native MATLAB code we previously developed. Tissue contractility was measured by tracking the change in tissue area as a function of time. […]

In the case of `C[C@]1(O)C[C@@H](c2nc(-c3ccc4ccc(-c5ccccc5)nc4c3)c3c(N)nccn32)C1` [linsitinib], in series [1] (3 days, directly into the tissue chamber (immediate exposure)), the “response to the drug (luminescence)” value is “fast response”. For the same compound, the “drug response (luminescence)” value in series [1] (3 days, perfused integrated platform) is recorded as “insignificant drug response”. For the same compound, the “secretion of LDH, vehicle vs linsitinib treated” value in series [1] (72 hours, perfused integrated platform) is recorded as “no significant difference”. Moreover, the “clinical outcome in ES” value in series [2] (Phase II clinical trial, no patients completing the trial) is reported as “unable to stop progression of ES”. In addition, in series [2] (clinical trials of other types of cancer), the atrial fibrillation is on record as 3.75-5%. In addition, the half-life entry in series [3] is “approximately 5 hours”. The “inotropic response to subsequent isoproterenol” value in series [4] is “not observed”.
